According to patent publication US20100273733A1, “HIV Treatment” (priority 2009, published 2010):

Experiments:
[1] = tested on: Jurkat (T-lymphocyte) cells; experiment: Selective toxicity, cell viability by MTT or XTT, uninfected control cells; type: cell-based
Procedure: For purposes of the following experiments and unless otherwise specified, the standard DEAE/Dex concentration is about 6.0 to about 6.9 molar DEAE/0.1 molar Dex.
Selective Toxicity. Wells with 10^6 Jurkat (T-lymphocyte) cells were infected with HIV at Multiplicities of Infection (MOI—the number of viral particles vs. infectable cells) of 0.1 or 0.01 for 4 hours. The cells are treated with Dex, DEAE, DEAE/DEX or control for 48 hours. Cell viability was assayed by MTT or XTT method. In the control (uninfected) cells, standard concentrations of Dex, DEAE and DEAE/Dex are non-toxic (within standard deviation).

HIV = HIV replication in JC53 cells, viral core antigen P24 antibody kit; type: cell-based; conditions: Dex alone from greater or equal to 0.1 μmolar, effect topped out
Procedure: In another experiment, JC53 cells (HeLa cancer cells engineered to express CD4 and CCR5 receptors for HIV) are treated with HIV and the relevant agents to determine if DEAE inhibit HIV replication, using commercial antibody kit for viral core antigen P24 to assess level of virus production. […] The virus appears able to propagate and infect other cells. Dex alone indicated a 50% HIV activity inhibition from greater or equal to 0.1 μmolar. […] Similarly, 0.02 μmolar AZT alone has 40% inhibition of HIV replication.

## C[C@@H]1C[C@H]2[C@@H]3CCC4=CC(=O)C=C[C@]4(C)[C@@]3(F)[C@@H](O)C[C@]2(C)[C@@]1(O)C(=O)CO [Dex, dexamethasone]
[1]
  toxicity (cell viability): non-toxic
HIV
  HIV activity inhibition: 50%
